In the Bradley open melting point set (2014):
Several values for one entry are separate records, joined by “and”; a condition that tells them apart may be missing. Equal values may be shown once.

SMILES | melting point
CC1(C)O[C@]2(C)CC[C@H]1CC2 [(1s,4s)-1,3,3-Trimethyl-2-oxabicyclo[2.2.2]octane] | 2 °C
OC/C(Br)=C(\Br)CO [(2E)-2,3-Dibromobut-2-ene-1,4-diol] | 113 °C
N#C/C=C/C#N [(2E)-But-2-enedinitrile] | 97 °C
CC12CCC(C=C/C1=N\O)C2(C)C (stereo unspecified) [(2E)-N-hydroxy-1,8,8-trimethylbicyclo[3.2.1]oct-3-en-2-imine] | 146 °C
C[C@@H](O)[C@@H](C)O [(2R,3R)-Butane-2,3-diol] | 16 °C
NC(=O)/C=C\C(=O)O [(2Z)-4-Amino-4-oxobut-2-enoic acid] | 160 °C
CC(C)[C@@H](C)/C=C/[C@@H](C)[C@H]1CC[C@H]2C3=CC=C4C[C@@H](O)CC[C@]4(C)[C@H]3CC[C@]12C [(3beta,22E)-Ergosta-5,7,22-trien-3-ol] | 160 °C
C[C@]12CCC(=O)C=C1CC[C@@H]1[C@@H]2[C@@H](O)C[C@@]2(C)[C@H]1CC[C@]2(O)C(=O)CO [(11beta)-11,17,21-Trihydroxypregn-4-ene-3,20-dione] | 220 °C
Cl/C=C/Cl [(E)-1,2-Dichloroethene] | -50 °C
c1ccc(/N=N/c2ccccc2)cc1 [(E)-Diphenyldiazene] | 68.5 °C
CC(C)(C)OC(=O)N1CCS[C@@H]1C(=O)O [(R)-3-boc-thiazolidine-2-carboxylic acid] | 92 °C
CC(C)(C)OC(=O)N1CCS[C@H]1C(=O)O [(S)-3-boc-thiazolidine-2-carboxylic acid] | 92 °C
[2H]OC(=O)C([2H])([2H])[2H] [(~2~H_4_)Acetic acid] | 15.5 °C
[2H]C([2H])([2H])[2H] [(~2~H_4_)Methane] | -183 °C
[2H]OC([2H])([2H])C([2H])([2H])[2H] [(~2~H_5_)Ethan(~2~H)ol] | -114 °C
[2H]OC([2H])([2H])C([2H])(O[2H])C([2H])([2H])O[2H] [(~2~H_5_)Propane-1,2,3-(~2~H_3_)triol] | 20 °C
[2H]C([2H])([2H])C(=O)C([2H])([2H])[2H] [(~2~H_6_)Propan-2-one] | -93 °C
[2H]C1([2H])OC([2H])([2H])C([2H])([2H])C1([2H])[2H] [(~2~H_8_)Tetrahydrofuran] | -106 °C
[2H]c1c([2H])c([2H])c2c(c1[2H])c([2H])c([2H])c1c3c([2H])c([2H])c([2H])c([2H])c3c([2H])c([2H])c21 [(~2~H_12_)Chrysene] | 255 °C
[2H]C([2H])([2H])C([2H])([2H])C([2H])([2H])C([2H])([2H])C([2H])([2H])C([2H])([2H])C([2H])([2H])C([2H])([2H])C([2H])([2H])[2H] [(~2~H_20_)Nonane] | -53 °C
[2H]C([2H])([2H])C([2H])([2H])C([2H])([2H])C([2H])([2H])C([2H])([2H])C([2H])([2H])C([2H])([2H])C([2H])([2H])C([2H])([2H])C([2H])([2H])[2H] [(~2~H_22_)Decane] | -30 °C
c1cc2c3c(cccc3c1)CC2 [Acenaphthene] | 95 °C
CC(=O)Nc1nnc(S(N)(=O)=O)s1 [Acetazolamide] | 260 °C
CC(=O)O [Acetic acid] | 16.7 °C
CC(=O)c1ccc(S(=O)(=O)NC(=O)NC2CCCCC2)cc1 [Acetohexamide] | 189 °C
CC(=O)Cl [Acetyl chloride] | -112 °C
N=c1nc(O)c2ncn(COCCO)c2[nH]1 [Acyclovir] | 255 °C

SMILES | melting point
O=C1[C@H]2C[C@@H]3C[C@@H](C[C@H]1C3)C2 [Adamantanone] | 270 °C
Nc1ncnc2c1ncn2[C@@H]1O[C@H](COP(=O)(O)O)[C@@H](O)[C@H]1O [Adenosine monophosphate] | 186 °C
NCCCCCC(=O)O [Aminocaproic Acid] | 205 °C
Nc1ccccc1 [Aniline] | -6 °C
COc1ccc(CCN2CCC(Nc3nc4ccccc4n3Cc3ccc(F)cc3)CC2)cc1 [Astemizole] | 149 °C
O=C(O)CCCCCCCC(=O)O [Azelaic Acid] | 106 °C
CC[C@H]1OC(=O)[C@H](C)[C@@H](O[C@H]2C[C@@](C)(OC)[C@@H](O)[C@H](C)O2)C(C)[C@@H](O[C@@H]2O[C@H](C)C[C@H](N(C)C)[C@H]2O)[C@](C)(O)C[C@@H](C)CN(C)[C@H](C)[C@@H](O)[C@]1(C)O (stereo partly specified) [Azithromycin] | 114 °C
O=C(O)\C=C(/C)C [B,B-dimethylacrylic acid] | 69.5 °C
CC1=C(/C=C/C(C)=C/C=C/C(C)=C/C=C/C=C(C)/C=C/C=C(C)/C=C/C2=C(C)CCCC2(C)C)C(C)(C)CCC1 [B-carotene] | 183 °C (2×) and 180 °C
CCC1(CC)C(=O)NC(=O)NC1=O [Barbital] | 190 °C
O=C1CC(=O)NC(=O)N1 [Barbituric acid] | 248 °C
C[C@H]1C[C@H]2[C@@H]3CCC4=CC(=O)C=C[C@]4(C)[C@@]3(Cl)[C@@H](O)C[C@]2(C)[C@@]1(O)C(=O)CO [Beclomethasone] | 118 °C
O=S(=O)(Cl)c1ccccc1 [Benzenesulfonyl chloride] | 15 °C
BrC(Br)Br [Bromoform] | 9 °C
C=CCC1(CC(C)C)C(=O)NC(=O)NC1=O [Butalbital] | 138 °C
CCCCN [Butan-1-amine] | -49 °C
CC(O)C(C)O (stereo unspecified) [Butane-2,3-diol] | 25 °C
C=C(C)C(=O)OCCCC [Butyl methacrylate] | -50 °C
CCCCN [Butylamine] | -49 °C
ClC(Cl)Cl [Chloroform] | -63 °C
CC(=O)C=C(C)[O][Co]([O]C(C)=CC(C)=O)[O]/C(C)=C\C(C)=O [Cobalt(3+) tris[(2Z)-4-oxopent-2-en-2-olate]] | 212 °C
COc1cc2c(c(OC)c1OC)-c1ccc(OC)c(=O)cc1[C@@H](NC(C)=O)CC2 [Colchicine] | 156 °C
N#CCC(=O)c1ccccc1 [Cyanoacetophenone] | 83 °C
OC1CCCCC1 [Cyclohexanol] | 21 °C
C1=CCCCC1 [Cyclohexene] | -104 °C
C1=CC=CC=CC=C1 [Cycloocta-1,3,5,7-tetraene] | -27 °C
C1=CCC=C1 [Cyclopenta-1,3-diene] | -97.2 °C

Other lines, results leading:

melting point | SMILES
147 °C | Nc1ccc(C/C(=N/O)c2ccc(N)cc2)cc1 [(1Z)-1,2-bis(4-aminophenyl)ethanone oxime]
158 °C | O=C(OCCc1cc([N+](=O)[O-])c(CCOC(=O)c2ccccc2)cc1[N+](=O)[O-])c1ccccc1 [(2,5-dinitrobenzene-1,4-diyl)diethane-2,1-diyl dibenzoate]
108 °C | O=C(OC(=O)/C(=C/c1ccccc1)Cc1ccccc1)/C(=C/c1ccccc1)Cc1ccccc1 [(2E)-2-benzyl-3-phenylprop-2-enoic anhydride]
133 °C | O=C(O)/C=C/c1ccccc1 [(2E)-3-Phenylacrylic acid]
127 °C | O=C(/C=C/c1ccc(-c2ccc(Cl)cc2)o1)c1ccccc1 [(2E)-3-[5-(4-Chlorophenyl)-2-furyl]-1-phenylprop-2-en-1-one]
101 °C | Cc1ccc(-c2ccc(/C=C/C(=O)c3ccccc3)o2)cc1 [(2E)-3-[5-(4-Methylphenyl)-2-furyl]-1-phenylprop-2-en-1-one]
158 °C | O=C(/C=C/c1ccc(-c2ccc([N+](=O)[O-])cc2)o1)c1ccccc1 [(2E)-3-[5-(4-Nitrophenyl)-2-furyl]-1-phenylprop-2-en-1-one]
177 °C | O=C1CSc2ccccc2N1 [(2h)1,4-benzothiazin-3(4h)-one]
102 °C | COc1ccc(SCC(=O)O)cc1OC [(3,4-dimethoxyphenylthio)acetic acid]
71 °C | OCc1ccc(Cl)cc1 [(4-Chlorophenyl)methanol]
45 °C | Cc1cc(CO)nn1-c1ccccn1 [(5-methyl-1-pyridin-2-yl-1H-pyrazol-3-yl)methanol]
56 °C | COC1=C(OC)/C(=C\CN=[N+]=[N-])OC1=O [(5E)-5-(2-azidoethylidene)-3,4-dimethoxyfuran-2(5H)-one]
93.9 °C | CC(C(=O)O)c1cccc(C(=O)c2ccccc2)c1 (stereo not drawn) [(+/+)-ketoprofen]
131 °C | [O-]/[N+](=N\c1ccccc1)c1ccc(/N=N/c2ccccc2)cc1 [(E)-1-phenyl-2-{4-[(Z)-phenyl-NNO-azoxy]phenyl}diazene]
198 °C | O=C(O)/C(=C/c1ccccc1[N+](=O)[O-])c1ccccc1 [(E)-2-phenyl-3-(2-nitrophenyl)propenoic acid]
-79 °C | CN1CCC[C@H]1c1cccnc1 [(S)-nicotine]

melting point | SMILES
229 °C | Cc1c(C)c(/C=CC(C)=CC=CC(/C)=CC(=O)O)c(C)cc1OC [Acitretin]
92 °C | C=CCOc1ccc(CC(=O)O)cc1Cl [Alclofenac]
108 °C | Cc1c(N(C)C)c(=O)n(-c2ccccc2)n1C [Aminopyrine]
130 °C | CC(C)(C#N)c1cc(Cn2cncn2)cc(C(C)(C)C#N)c1 [Anastrozole]
95 °C | O=C(C(=O)c1ccccc1)c1ccccc1 [Benzil] [listing 1 of 2 here]
94.5 °C | O=C(C(=O)c1ccccc1)c1ccccc1 [Benzil] [listing 2 of 2 here]
122 °C | O=C(O)c1ccccc1 [Benzoic Acid]
122 °C | O=C(O)c1ccccc1 [Benzoic acid]
186 °C | CC(C)(Oc1ccc(CCNC(=O)c2ccc(Cl)cc2)cc1)C(=O)O [Bezafibrate]
52 °C | c1ccc(CCc2ccccc2)cc1 [Bibenzyl]
230 °C | CCCCNc1cc(C(=O)O)cc(S(N)(=O)=O)c1Oc1ccccc1 [Bumetanide]
160 °C | CC(=O)OCC1=C(C(=O)O)N2C(=O)[C@@H](NC(=O)Cc3cccs3)[C@H]2SC1 [Cefalotin]
255 °C | c1ccc2c(c1)ccc1c3ccccc3ccc21 [Chrysene] [listing 1 of 2 here]
253 °C | c1ccc2c(c1)ccc1c3ccccc3ccc21 [Chrysene] [listing 2 of 2 here]
130 °C | Clc1cccc(Cl)c1N=C1NCCN1 [Clonidine]
148 °C | Clc1ccccc1C(c1ccccc1)(c1ccccc1)n1ccnc1 [Clotrimazole]
